Source: US20240417410A1, “TRICYCLIC COMPOUNDS FOR THE TREATMENT OF CANCER” (Hoffmann-La Roche Inc., priority 2023, published 2024)

How the values were obtained:
AGS cells (KRAS G12D) = test: Cell viability assay (Cell Counting Kit-8, 3-day); format: cell-based, human; settings: Homo sapiens, 72 h, 72 hrs incubation
Procedure, shortened: (§1)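 Seed NCI-H358 5,000/well, AGS and SW620 2,000/well; overnight. Compound, 0.5% DMSO final, 72 hrs. CCK-8 2 hrs, OD450–OD650. IC50: 4-parameter fit.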

[1] = tested on: NCI-H358 cells (KRAS G12C); test: Cell viability assay (Cell Counting Kit-8, 3-day); format: cell-based, human; settings: Homo sapiens, NCI-H358, 72 h, NCI-H358, 72 hrs incubation
Procedure, shortened: as §1

SW620 cells (KRAS G12V) = test: Cell viability assay (Cell Counting Kit-8, 3-day); format: cell-based, human; settings: Homo sapiens, SW-620; SW620, 72 hrs incubation
Procedure, shortened: as §1

KRAS G12C-BRAF complex = KRAS G12C-BRAF complex (Homo sapiens (Human), UniProt P01116+P62937, G12C); test: KRAS-BRAF with CYPA (500 nM) interaction assay (TR-FRET, Example 136); format: biochemical; settings: KRAS G12C-BRAF disruption
Procedure: In this example, TR-FRET was also used to measure the compound or compound-CYPA dependent disruption of the KRAS G12C-BRAF complex. This protocol was also used to measure disruption of KRAS G12D or KRAS G12V binding to BRAF by a compound of the invention, respectively. In assay buffer containing 25 mM HEPES PH=7.4 (4-(2-hydroxyethyl)-1-piperazineethanesulfonic acid, Thermo, 15630080), 0.002% Tween20, 0.1% BSA, 100 mM NaCl, 5 mM MgCl2, 10 μM GMPPNP (Guanosine 5′-[β,γ-imido]triphosphate trisodium salt hydrate, Sigma, G0635), […] 384-well assay plate at final concentrations of 50 nM, 6.25 nM and 1 nM, respectively. Compound was present in plate wells as a 16-point 3-fold dilution series starting at a final concentration of 10 μM and incubated for 3 hours. A mixture of MAb Anti-6His-XL665 (Cisbio, 61HISXLB) and Mab anti-GST-TB cryptate (Cisbio, 61GSTTLB) was then added at a final concentration of 6.67 nM and 0.21 nM, respectively, and the plate was incubated for an additional 1.5 hours. TR-FRET signal was read on a PHERstar FSX microplate reader (Ex320 nm, Em 665/615 nm). Compounds that facilitate disruption of the KRAS-BRAF complex were identified as those eliciting a decrease in the TR-FRET ratio relative to DMSO control wells.

[2] = tested on: phosphorylation of ERK, KRAS G12C in NCI-H358 cells; test: pERK inhibition assay; format: cell-based; settings: Homo sapiens, NCI-H358, 4 h
Procedure, shortened: (§2)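 Cells in RPMI-1640 with 10% FBS were plated overnight (30,000/well H358, 20,000 AGS, 30,000 SW620) and treated 4 h with compounds at 0.5% DMSO. After formaldehyde fixation and methanol permeabilization, pERK was detected by in-cell ELISA with HRP secondary and TMB (OD450); IC50 from 4-parameter fit.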

[3] = tested on: phosphorylation of ERK, KRAS G12D in AGS cells; test: pERK inhibition assay; format: cell-based; settings: Homo sapiens, AGS, 4 h
Procedure, shortened: as §2

[4] = tested on: phosphorylation of ERK, KRAS G12V in SW620; test: pERK inhibition assay; format: cell-based; settings: Homo sapiens, SW-620, 4 h, SW620 cells
Procedure, shortened: as §2

Sequence of KRAS G12C-BRAF complex (P01116-2 other isoform, or with tags, fused parts or gaps G12C): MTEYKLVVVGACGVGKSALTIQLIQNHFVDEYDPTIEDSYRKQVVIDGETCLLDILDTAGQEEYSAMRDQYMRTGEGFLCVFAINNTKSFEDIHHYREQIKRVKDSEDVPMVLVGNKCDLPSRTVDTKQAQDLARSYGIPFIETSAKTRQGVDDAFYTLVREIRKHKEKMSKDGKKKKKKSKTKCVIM
Sequence of KRAS G12C-BRAF complex (P62937 whole entry): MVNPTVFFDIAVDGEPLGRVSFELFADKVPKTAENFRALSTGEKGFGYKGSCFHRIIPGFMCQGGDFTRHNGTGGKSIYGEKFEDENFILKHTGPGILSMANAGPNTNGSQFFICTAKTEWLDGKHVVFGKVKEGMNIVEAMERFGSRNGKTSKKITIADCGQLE

Structure (SMILES): CO[C@@H](C)c1ncc(N2CCN(CCN3CCCC3=O)CC2)cc1-c1c2c3cc(cc4c3n1CCC4)-c1csc(n1)C[C@H](NC(=O)[C@H]1[C@H](C)[C@@H]1C)C(=O)N1CCC[C@H](N1)C(=O)OCC(C)(C)C2 (atropisomer, axis not shown; (M)) [Example 121, (1r,2R,3S)-N-[(7S,13S)-(20M)-20-[2-[(1S)-1-methoxyethyl]-5-[4-[2-(2-oxopyrrolidin-1-yl)ethyl]piperazin-1-yl]-3-pyridyl]-17,17-dimethyl-8,14-dioxo-15-oxa-4-thia-9,21,30,31-tetrazahexacyclo[23.3.1.1^2,5.1^9,13.0^19,27.0^21,26]hentriaconta-1 (28),2,5 (31), 19,25 (29),26-hexaen-7-yl]-2,3-dimethyl-cyclopropanecarboxamide]
- IC50 (AGS cells (KRAS G12D)): 2.4 nM
- IC50 [1]: 1.6 nM
- IC50 (SW620 cells (KRAS G12V)): 0.3 nM
- IC50 (KRAS G12C-BRAF complex): 13 nM
- IC50 [2]: 0.9 nM
- IC50 [3]: 3.4 nM
- IC50 [4]: 0.3 nM

Structure (SMILES): CO[C@@H](C)c1ncc(N2CCOCC2)cc1-c1c2c3cc(cc4c3n1CC(F)(F)C4)-c1csc(n1)C[C@H](NC(=O)[C@H]1C[C@@H]1c1cccnc1)C(=O)N1CCC[C@H](N1)C(=O)OCC(C)(C)C2 (atropisomer, axis not shown; (M)) [Example 91, (1S,2S)-N-[(7S,13S)-23,23-difluoro-(20M)-20-[2-[(1S)-1-methoxyethyl]-5-morpholino-3-pyridyl]-17,17-dimethyl-8,14-dioxo-15-oxa-4-thia-9,21,30,31-tetrazahexacyclo[23.3.1.1^2,5.1^9,13.0^19,27.0^21,26]hentriaconta-1 (28),2,5 (31),19,25 (29),26-hexaen-7-yl]-2-(3-pyridyl)cyclopropanecarboxamide]
- IC50 (AGS cells (KRAS G12D)): 9.7 nM
- IC50 [1]: 2.8 nM
- IC50 (SW620 cells (KRAS G12V)): 0.6 nM
- IC50 (KRAS G12C-BRAF complex): 8.1 nM
- IC50 [2]: 0.5 nM
- IC50 [3]: 3.2 nM
- IC50 [4]: 0.6 nM

Structure (SMILES): CO[C@@H](C)c1ncc(N2CCN3CCOC[C@@H]3C2)cc1-c1c2c3cc(cc4c3n1CCC4)-c1csc(n1)C[C@H](NC(=O)[C@H]1C[C@@H]1c1cncnc1)C(=O)N1CCC[C@H](N1)C(=O)OCC(C)(C)C2 (atropisomer, axis not shown; (M)) [Example 105, (1S,2S)-N-[(7S,13S)-(20M)-20-[5-[(9αS)-3,4,6,7,9,9a-hexahydro-1H-pyrazino[2,1-c][1,4]oxazin-8-yl]-2-[(1S)-1-methoxyethyl]-3-pyridyl]-17,17-dimethyl-8,14-dioxo-15-oxa-4-thia-9,21,30,31-tetrazahexacyclo[23.3.1.1^2,5.1^9,13.0^19,27.0^21,26]hentriaconta-1 (28),2,5 (31),19,25 (29),26-hexaen-7-yl]-2-pyrimidin-5-yl-cyclopropanecarboxamide]
- IC50 (AGS cells (KRAS G12D)): 6.8 nM
- IC50 [1]: 1.5 nM
- IC50 (SW620 cells (KRAS G12V)): 0.6 nM
- IC50 (KRAS G12C-BRAF complex): 13.3 nM
- IC50 [2]: 1.5 nM
- IC50 [3]: 2.2 nM
- IC50 [4]: 0.4 nM

Structure (SMILES): CO[C@@H](C)c1ncc(N2CCOCC2)cc1-c1c2c3cc(cc4c3n1CCC4)-c1csc(n1)C[C@H](NC(=O)[C@H]1C[C@@H]1C(F)F)C(=O)N1CCC[C@H](N1)C(=O)OCC(C)(C)C2 (atropisomer, axis not shown; (M)) [Example 6, (1S,2S)-2-(difluoromethyl)-N-[(7S,13S)-(20M)-20-[2-[(1S)-1-methoxyethyl]-5-morpholino-3-pyridyl]-17,17-dimethyl-8,14-dioxo-15-oxa-4-thia-9,21,30,31-tetrazahexacyclo[23.3.1.1^2,5.1^9,13.0^19,27.0^21,26]hentriaconta-1 (28),2,5 (31), 19,25 (29),26-hexaen-7-yl]cyclopropanecarboxamide]
- IC50 (AGS cells (KRAS G12D)): 19.4 nM
- IC50 [1]: 3 nM
- IC50 (SW620 cells (KRAS G12V)): 1.6 nM
- IC50 (KRAS G12C-BRAF complex): 11.1 nM
- IC50 [2]: 1.4 nM
- IC50 [3]: 5.6 nM
- IC50 [4]: 0.8 nM

Structure (SMILES): CO[C@@H](C)c1ncc(N2CCOCC2)cc1-c1c2c3cc(cc4c3n1CCC4)-c1csc(n1)C[C@H](NC(=O)[C@H]1C[C@@H]1c1cncnc1)C(=O)N1CCC[C@H](N1)C(=O)OCC(C)(C)C2 (atropisomer, axis not shown; (M)) [Example 94, (1S,2S)-N-[(7S,13S)-(20M)-20-[2-[(1S)-1-methoxyethyl]-5-morpholino-3-pyridyl]-17,17-dimethyl-8,14-dioxo-15-oxa-4-thia-9,21,30,31-tetrazahexacyclo[23.3.1.1^2,5.1^9,13.0^19,27.0^21,26]hentriaconta-1 (28),2,5 (31),19,25 (29),26-hexaen-7-yl]-2-pyrimidin-5-yl-cyclopropanecarboxamide]
- IC50 (AGS cells (KRAS G12D)): 6.9 nM
- IC50 [1]: 2.3 nM
- IC50 (SW620 cells (KRAS G12V)): 0.5 nM
- IC50 (KRAS G12C-BRAF complex): 6.9 nM
- IC50 [2]: 0.4 nM
- IC50 [3]: 2.4 nM
- IC50 [4]: 0.4 nM

Structure (SMILES): CO[C@@H](C)c1ncc(N2CCN(C)CC2)cc1-c1c2c3cc(cc4c3n1CCC4)-c1csc(n1)C[C@H](NC(=O)[C@@H]1[C@@H]3COC[C@@H]31)C(=O)N1CCC[C@H](N1)C(=O)OCC(C)(C)C2 (atropisomer, axis not shown; (M)) [Example 42, (1R,5S,6s)-N-[(7S,13S)-(20M)-20-[2-[(1S)-1-methoxyethyl]-5-(4-methylpiperazin-1-yl)-3-pyridyl]-17,17-dimethyl-8,14-dioxo-15-oxa-4-thia-9,21,30,31-tetrazahexacyclo[23.3.1.1^2,5.1^9,13.0^19,27.0^21,26]hentriaconta-1 (28),2,5 (31), 19,25 (29),26-hexaen-7-yl]-3-oxabicyclo[3.1.0]hexane-6-carboxamide]
- IC50 (AGS cells (KRAS G12D)): 22.4 nM
- IC50 [1]: 5.4 nM
- IC50 (SW620 cells (KRAS G12V)): 1.3 nM
- IC50 (KRAS G12C-BRAF complex): 20.5 nM
- IC50 [2]: 0.9 nM
- IC50 [3]: 8.1 nM
- IC50 [4]: 1.4 nM

Structure (SMILES): CO[C@@H](C)c1ncc(N2CCN(C)CC2)cc1-c1c2c3cc(cc4c3n1CCC4)-c1csc(n1)C[C@H](NC(=O)[C@@H]1C[C@H]1c1cncc(C)c1)C(=O)N1CCC[C@H](N1)C(=O)OCC(C)(C)C2 (atropisomer, axis not shown; (M)) [Example 120, (1R,2R)-N-[(7S,13S)-(20M)-20-[2-[(1S)-1-methoxyethyl]-5-(4-methylpiperazin-1-yl)-3-pyridyl]-17,17-dimethyl-8,14-dioxo-15-oxa-4-thia-9,21,30,31-tetrazahexacyclo[23.3.1.1^2,5.1^9,13.0^19,27.0^21,26]hentriaconta-1 (28),2,5 (31), 19,25 (29),26-hexaen-7-yl]-2-(5-methyl-3-pyridyl)cyclopropanecarboxamide]
- IC50 (AGS cells (KRAS G12D)): 2.2 nM
- IC50 [1]: 1.4 nM
- IC50 (SW620 cells (KRAS G12V)): 0.4 nM
- IC50 (KRAS G12C-BRAF complex): 20.4 nM
- IC50 [2]: 1.1 nM
- IC50 [3]: 2.9 nM
- IC50 [4]: 0.9 nM

Structure (SMILES): CO[C@@H](C)c1ncc(N2CCN(C)CC2)cc1-c1c2c3cc(cc4c3n1CCC4)-c1csc(n1)C[C@H](NC(=O)[C@@H]1C[C@H]1c1cscn1)C(=O)N1CCC[C@H](N1)C(=O)OCC(C)(C)C2 (atropisomer, axis not shown; (M)) [Example 114, (1R,2R)-N-[(7S,13S)-(20M)-20-[2-[(1S)-1-methoxyethyl]-5-(4-methylpiperazin-1-yl)-3-pyridyl]-17,17-dimethyl-8,14-dioxo-15-oxa-4-thia-9,21,30,31-tetrazahexacyclo[23.3.1.1^2,5.1^9,13.0^19,27.0^21,26]hentriaconta-1 (28),2,5 (31), 19,25 (29),26-hexaen-7-yl]-2-thiazol-4-yl-cyclopropanecarboxamide]
- IC50 (AGS cells (KRAS G12D)): 5.1 nM
- IC50 [1]: 4.5 nM
- IC50 (SW620 cells (KRAS G12V)): 1.3 nM
- IC50 (KRAS G12C-BRAF complex): 8.9 nM
- IC50 [2]: 1.2 nM
- IC50 [3]: 7.5 nM
- IC50 [4]: 1 nM
